± gives the expanded uncertainty stated by the source.
Conditions: 101.33 kPa, Liquid, Hot wire method

| thermal conductivity (273.15 K) [W/m/K] | thermal conductivity (293.15 K) [W/m/K] | thermal conductivity (313.15 K) [W/m/K] | thermal conductivity (333.15 K) [W/m/K] | thermal conductivity (288.15 K) [W/m/K] | thermal conductivity (303.15 K) [W/m/K] | thermal conductivity (318.15 K) [W/m/K] | SMILES |
| --- | --- | --- | --- | --- | --- | --- | --- |
| 0.145 ± 0.003 | 0.14 ± 0.003 | 0.137 ± 0.003 | 0.13 ± 0.003 |  |  |  | CCSCC [3-thiapentane] |
| 0.207 ± 0.004 | 0.195 ± 0.004 | 0.183 ± 0.004 |  |  |  |  | CC#N [acetonitrile] |
| 0.141 ± 0.003 | 0.137 ± 0.003 | 0.131 ± 0.003 | 0.126 ± 0.003 |  |  |  | C1CCCNCC1 [azacycloheptane] |
| 0.12 ± 0.003 |  |  | 0.11 ± 0.002 | 0.117 ± 0.002 | 0.115 ± 0.002 | 0.112 ± 0.002 | C1CCSC1 [tetrahydrothiophene] |

| SMILES | thermal conductivity (273.15 K) [W/m/K] | thermal conductivity (293.15 K) [W/m/K] | thermal conductivity (313.15 K) [W/m/K] | thermal conductivity (333.15 K) [W/m/K] | thermal conductivity (288.15 K) [W/m/K] | thermal conductivity (303.15 K) [W/m/K] | thermal conductivity (318.15 K) [W/m/K] |
| --- | --- | --- | --- | --- | --- | --- | --- |
| CN(C)CCN(C)C [N,N,N',N'-tetramethyl-1,2-diaminoethane] | 0.154 ± 0.003 | 0.15 ± 0.003 | 0.144 ± 0.003 | 0.135 ± 0.003 |  |  |  |

Source: the NIST ThermoML archive (doi:10.1021/je0498661)
